Data reported in US9868772B2 (INDIANA UNIVERSITY RESEARCH AND TECHNOLOGY CORPORATION, priority 2012, dated 2018).
Numbered stars: 1 amine (or outer) side, 2 acyl side, 3 side chain; on linkers, the order of the positions; unused ones are H or OH. Square brackets hold non-standard residues; d marks the D form. Side chains are listed from the residue outwards. Peptide text beside a SMILES is read from it. * marks the point of attachment. γGlu = O=C(O)[C@H](CCC(=O)[*:2])N[*:1]; Palmitoyl = CCCCCCCCCCCCCCCC(=O)*

Experiments:
Test in all cases: cAMP induction, firefly luciferase reporter assay in HEK293 cells co-transfected with receptor
Type in all cases: cell-based
[1] = target: T1, GIP receptor (Homo sapiens, UniProt P48546)
T1 construct: expressed in transfected cells; host or cells: HEK293
T1 sequence (P48546 22-466): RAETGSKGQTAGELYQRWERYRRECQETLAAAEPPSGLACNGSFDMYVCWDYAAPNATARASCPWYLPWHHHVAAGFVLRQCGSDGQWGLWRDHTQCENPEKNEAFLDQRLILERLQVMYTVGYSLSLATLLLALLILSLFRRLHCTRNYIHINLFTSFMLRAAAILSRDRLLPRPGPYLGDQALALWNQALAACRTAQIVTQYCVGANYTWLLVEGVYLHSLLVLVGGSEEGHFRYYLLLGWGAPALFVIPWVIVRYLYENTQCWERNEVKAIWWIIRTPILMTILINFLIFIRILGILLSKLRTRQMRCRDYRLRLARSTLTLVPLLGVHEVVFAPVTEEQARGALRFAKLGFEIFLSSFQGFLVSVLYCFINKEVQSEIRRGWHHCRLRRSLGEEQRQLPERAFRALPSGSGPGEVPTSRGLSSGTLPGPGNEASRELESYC
Experimental: (§1) The ability of glucagon analogs to induce cAMP was measured in a firefly luciferase-based reporter assay. […] At the end of the incubation 100 microliters of LucLite luminescence substrate reagent (Perkin-Elmer, Wellesley, Mass.) were added to each well. […] Effective 50% concentrations were calculated by using Origin software (OriginLab, Northampton, Mass.

[2] = target: T2, glucagon receptor (Homo sapiens, UniProt P47871)
T2 construct: expressed in transfected cells; host or cells: HEK293
Experimental: as §1

[3] = target: T3, GLP-1 receptor (Homo sapiens, UniProt P43220)
T3 construct: expressed in transfected cells; host or cells: HEK293
Experimental: as §1

[4] = Table 2, analogs of SEQ ID NO: 10
[5] = Table 3, analogs of SEQ ID NO: 12

T2 sequence (P47871 26-477): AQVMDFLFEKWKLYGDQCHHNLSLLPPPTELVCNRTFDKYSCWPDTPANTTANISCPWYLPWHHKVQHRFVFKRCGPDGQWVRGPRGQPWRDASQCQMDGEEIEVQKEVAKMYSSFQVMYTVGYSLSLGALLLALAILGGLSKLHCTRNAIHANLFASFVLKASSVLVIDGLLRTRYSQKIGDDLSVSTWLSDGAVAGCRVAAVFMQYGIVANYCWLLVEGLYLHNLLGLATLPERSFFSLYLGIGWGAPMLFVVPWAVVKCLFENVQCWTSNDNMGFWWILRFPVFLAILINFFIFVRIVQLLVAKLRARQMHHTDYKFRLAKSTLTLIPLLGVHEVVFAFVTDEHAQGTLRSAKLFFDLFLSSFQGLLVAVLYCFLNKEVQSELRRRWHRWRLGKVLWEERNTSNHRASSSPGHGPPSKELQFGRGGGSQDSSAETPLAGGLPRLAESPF
T3 sequence (P43220 24-463): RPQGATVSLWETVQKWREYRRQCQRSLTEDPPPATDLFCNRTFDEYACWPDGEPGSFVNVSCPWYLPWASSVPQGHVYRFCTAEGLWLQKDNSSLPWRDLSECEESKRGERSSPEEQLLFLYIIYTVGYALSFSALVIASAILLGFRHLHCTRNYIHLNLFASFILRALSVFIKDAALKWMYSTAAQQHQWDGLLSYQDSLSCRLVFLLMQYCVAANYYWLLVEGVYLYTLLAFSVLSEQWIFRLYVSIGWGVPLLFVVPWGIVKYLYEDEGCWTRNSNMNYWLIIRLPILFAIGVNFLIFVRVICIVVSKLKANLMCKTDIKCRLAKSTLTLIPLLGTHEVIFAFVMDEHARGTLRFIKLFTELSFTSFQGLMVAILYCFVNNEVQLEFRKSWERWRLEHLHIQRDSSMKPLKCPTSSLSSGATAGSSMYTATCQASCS

| Compound | EC50 [1, 4] | EC50 [2, 4] | EC50 [3, 4] | EC50 [1, 5] | EC50 [2, 5] | EC50 [3, 5] |
| --- | --- | --- | --- | --- | --- | --- |
| CCCCCCCCCCCCCCCC(=O)N[C@@H](CCC(=O)NCCCC[C@H](NC(=O)[C@H](CC(=O)O)NC(=O)[C@H](CO)NC(=O)[C@@H](NC(=O)[C@H](Cc1ccccc1)NC(=O)[C@@H](NC(=O)CNC(=O)[C@@H](CCC(N)=O)NC(=O)[C@H](C)NC(=O)[C@H](Cc1ccc(O)cc1)NC(C)=O)[C@@H](C)O)[C@@H](C)O)C(=O)N[C@@H](CO)C(=O)N[C@@H](CCCCN)C(=O)N[C@@H](Cc1ccc(O)cc1)C(=O)N[C@@H](CC(C)C)C(=O)N[C@@H](CC(=O)O)C(=O)N[C@@H](CCC(=O)O)C(=O)N[C@@H](CCCNC(=N)N)C(=O)N[C@@H](C)C(=O)N[C@@H](C)C(=O)N[C@@H](CCC(N)=O)C(=O)N[C@@H](CC(=O)O)C(=O)N[C@@H](Cc1ccccc1)C(=O)N[C@H](C(=O)N[C@@H](CCC(N)=O)C(=O)N[C@@H](Cc1c[nH]c2ccccc12)C(=O)N[C@@H](CC(C)C)C(=O)N[C@@H](CC(C)C)C(=O)N[C@@H](CCC(=O)O)C(=O)NCC(=O)NCC(=O)N1CCC[C@H]1C(=O)N[C@@H](CO)C(=O)N[C@@H](CO)C(=O)NCC(=O)N[C@@H](C)C(=O)N1CCC[C@H]1C(=O)N1CCC[C@H]1C(=O)N1CCC[C@H]1C(=O)N[C@@H](CO)C(N)=O)C(C)C)C(=O)O [compound 158] (Ac-YA[dQ]GTFTSDK([γGlu-Palmitoyl])SKYLDERAAQDFVQWLLEGGPSSGAPPPS-NH2) | 0.069 nM | 0.416 nM | 0.349 nM | – | – | – |
| CCCCCCCCCCCCCCCC(=O)N[C@@H](CCC(=O)NCCCC[C@H](NC(=O)[C@H](CC(=O)O)NC(=O)[C@H](CO)NC(=O)[C@@H](NC(=O)[C@H](Cc1ccccc1)NC(=O)[C@@H](NC(=O)CNC(=O)[C@H](CCC(N)=O)NC(=O)[C@H](C)NC(=O)[C@@H](Cc1ccc(O)cc1)NC(C)=O)[C@@H](C)O)[C@@H](C)O)C(=O)N[C@@H](CO)C(=O)N[C@@H](CCCCN)C(=O)N[C@@H](Cc1ccc(O)cc1)C(=O)N[C@@H](CC(C)C)C(=O)N[C@@H](CC(=O)O)C(=O)N[C@@H](CCC(=O)O)C(=O)N[C@@H](CCCNC(=N)N)C(=O)N[C@@H](C)C(=O)N[C@@H](C)C(=O)N[C@@H](CCC(N)=O)C(=O)N[C@@H](CC(=O)O)C(=O)N[C@@H](Cc1ccccc1)C(=O)N[C@H](C(=O)N[C@@H](CCC(N)=O)C(=O)N[C@@H](Cc1c[nH]c2ccccc12)C(=O)N[C@@H](CC(C)C)C(=O)N[C@@H](CC(C)C)C(=O)N[C@@H](CC(=O)O)C(=O)N[C@@H](C)C(=O)NCC(=O)N1CCC[C@H]1C(=O)N[C@@H](CO)C(=O)N[C@@H](CO)C(=O)NCC(=O)N[C@@H](C)C(=O)N1CCC[C@H]1C(=O)N1CCC[C@H]1C(=O)N1CCC[C@H]1C(=O)N[C@@H](CO)C(N)=O)C(C)C)C(=O)O [compound 143] (Ac-[dY]AQGTFTSDK([γGlu-Palmitoyl])SKYLDERAAQDFVQWLLDAGPSSGAPPPS-NH2) | – | – | – | 0.003 nM | 0.004 nM | 0.003 nM |
| CCCCCCCCCCCCCCCC(=O)N[C@@H](CCC(=O)NCCCC[C@H](NC(=O)[C@H](CC(=O)O)NC(=O)[C@H](CO)NC(=O)[C@@H](NC(=O)[C@H](Cc1ccccc1)NC(=O)[C@@H](NC(=O)CNC(=O)[C@H](CCC(N)=O)NC(=O)[C@H](C)NC(=O)[C@@H](Cc1ccccc1)NC(C)=O)[C@@H](C)O)[C@@H](C)O)C(=O)N[C@@H](CO)C(=O)N[C@@H](CCCCN)C(=O)N[C@@H](Cc1ccc(O)cc1)C(=O)N[C@@H](CC(C)C)C(=O)N[C@@H](CC(=O)O)C(=O)N[C@@H](CCC(=O)O)C(=O)N[C@@H](CCCNC(=N)N)C(=O)N[C@@H](C)C(=O)N[C@@H](C)C(=O)N[C@@H](CCC(N)=O)C(=O)N[C@@H](CC(=O)O)C(=O)N[C@@H](Cc1ccccc1)C(=O)N[C@H](C(=O)N[C@@H](CCC(N)=O)C(=O)N[C@@H](Cc1c[nH]c2ccccc12)C(=O)N[C@@H](CC(C)C)C(=O)N[C@@H](CC(C)C)C(=O)N[C@@H](CCC(=O)O)C(=O)NCC(=O)NCC(=O)N1CCC[C@H]1C(=O)N[C@@H](CO)C(=O)N[C@@H](CO)C(=O)NCC(=O)N[C@@H](C)C(=O)N1CCC[C@H]1C(=O)N1CCC[C@H]1C(=O)N1CCC[C@H]1C(=O)N[C@@H](CO)C(N)=O)C(C)C)C(=O)O [compound 150] | 0.011 nM | 0.014 nM | 0.002 nM | – | – | – |
